Data: patent US20230234943A1, “TREX1 INHIBITORS AND USES THEREOF” (Tempest Therapeutics, Inc., priority 2020, published 2023)

Assays:
[1] = biological target: T1, Human TREX1 enzyme (amino acids 1-242) (Homo sapiens, UniProt Q9NSU2); assay: Human TREX1 enzymatic assay with dsDNA native oligonucleotide (Picogreen fluorescence); type: biochemical; conditions: 2 mM dithiothreitol in assay buffer; 50 nM dsDNA oligonucleotide; 30 min preincubation at 25° C.; read-out: TREX1/Human + DTT IC50 AVG
T1 construct: Human TREX1 enzyme (amino acids 1-242)
T1 sequence (Q9NSU2 1-242): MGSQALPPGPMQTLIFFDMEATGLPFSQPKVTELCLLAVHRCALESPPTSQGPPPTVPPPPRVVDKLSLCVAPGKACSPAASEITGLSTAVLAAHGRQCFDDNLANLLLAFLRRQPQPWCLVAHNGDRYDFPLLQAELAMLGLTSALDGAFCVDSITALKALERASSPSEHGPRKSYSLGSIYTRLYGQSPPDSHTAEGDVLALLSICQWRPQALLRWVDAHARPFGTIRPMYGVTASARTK
Summary of the method: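 Remaining dsDNA quantified by Picogreen fluorescence after EDTA quench, with no-enzyme and DMSO wells as controls. Reactions used 50 nM annealed oligonucleotide for 5–15 min at 25 °C, after a 30 min compound–enzyme preincubation (0.8–0.16 nM TREX1; 2% DMSO; pH 7.7 Tris, 5 mM MgCl2).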

Human TREX1 = biological target: T2, Human TREX1 (Homo sapiens, UniProt Q9NSU2); assay: Gel assay (orthogonal control, IR-680 oligonucleotide strand degradation); type: biochemical; conditions: polyacrylamide gel, top band intensity; different doses of inhibitor
T2 sequence (Q9NSU2 1-314): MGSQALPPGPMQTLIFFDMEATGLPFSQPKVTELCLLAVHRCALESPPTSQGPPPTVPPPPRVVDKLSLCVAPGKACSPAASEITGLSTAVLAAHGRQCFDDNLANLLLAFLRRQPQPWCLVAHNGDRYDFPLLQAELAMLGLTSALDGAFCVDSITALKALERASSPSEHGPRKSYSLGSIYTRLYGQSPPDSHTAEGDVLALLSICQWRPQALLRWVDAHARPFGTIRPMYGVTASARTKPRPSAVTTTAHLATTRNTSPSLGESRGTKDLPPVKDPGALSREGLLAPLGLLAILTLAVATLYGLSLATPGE
Experimental: A gel assay was conducted as an orthogonal control to confirm observations of TREX1 inhibitors determined with the fluorescence-based assay. Briefly, compounds were diluted in DMSO at 50× the final concentration. Human TREX1 was diluted to […] (2×concentration) in assay buffer (assay buffer: 20 mM Tris pH 7.7 (Life T-echnologies), 5 mM MgCl2 (Sigma), 0.01% HSA (Sigma), 0.01% Brij-35 (ThermoFisher), 2 mM DTT (Sigma)). Oligonucleotide strand (IR-680-5′[…]-3′) (Custom probe made by Trilink) was diluted in the same assay buffer to a working concentration of 25 nM (final concentration of 12.5 nM). Example 107 was added to […] human TREX1 enzyme in clear 96 well plates. The plate was then incubated at 25° C. for 30 minutes. Twenty five nM oligonucleotide strand was added to the plate, to a final concentration of 30 pM TREX1, 12.5 nM oligo, 1× compound and incubated at 25° C. Fifteen minutes later, the reaction was stopped by removing 10 μl of the reaction and adding it to 20 μl of a solution of 50 mM EDTA/1.5× loading dye buffer (6× Orange DNA loading dye; ThermoFisher) in a 96 well PCR plate. […] The top band was quantified using Image Studio (Licor). […] The top band intensity was measured using the Odyssey scanner (Li-Cor) and ImageStudio software (Li-Cor) and FIG. 1B: Graph representing the percent of top band intensity degradation as a measure of human TREX1 activity. […]

COc1cc(-c2nc3ccc(C#N)cc3n2C2(C)COC2)c(F)c(O)c1O [Example 179, 2-(2-fluoro-3,4-dihydroxy-5-methoxyphenyl)-1-(3-methyloxetan-3-yl)-1H-1,3-benzodiazole-6-carbonitrile]
melting point: 209 °C
IC50 [1]: 0.1 to 1 µM

COc1cc(-c2nc3ccccc3n2C2CCC2)c(C2CC2)c(O)c1O [Example 174, 4-(1-cyclobutyl-1H-benzo[d]imidazol-2-yl)-3-cyclopropyl-6-methoxybenzene-1,2-diol]
melting point: 209 °C
IC50 [1]: 10 to 100 µM

COc1cc(-c2nc3ccc(S(C)(=O)=O)cc3n2C2(C)COC2)c(F)c(O)c1O [Example 178, 3-fluoro-4-[6-methanesulfonyl-1-(3-methyloxetan-3-yl)-1H-1,3-benzodiazol-2-yl]-6-methoxybenzene-1,2-diol]
melting point: 257.6 °C
IC50 [1]: 1 to 10 µM

COc1cc(-c2nc3ccc(C(N)=O)cc3n2C2(C)COC2)c(F)c(O)c1O [Example 180, 2-(2-fluoro-3,4-dihydroxy-5-methoxyphenyl)-1-(3-methyloxetan-3-yl)-1H-1,3-benzodiazole-6-carboxamide]
melting point: 170.4 °C
IC50 [1]: ≤ 0.1 µM

COc1ccc2[nH]c(-c3cc(OC)c(O)c(O)c3C)nc2c1 [Example 175, 6-methoxy-4-(5-methoxy-1H-benzo[d]imidazol-2-yl)-3-methylbenzene-1,2-diol]
melting point: 249.1 °C
IC50 [1]: 10 to 100 µM

COc1cc(-c2nc3ccc(N4CCN(S(C)(=O)=O)CC4)cc3n2C2CCOC2)cc(O)c1O (stereo not drawn) [Example 107, 3-methoxy-5-(6-(4-(methylsulfonyl)piperazin-1-yl)-1-(tetrahydrofuran-3-yl)-1H-benzo[d]imidazol-2-yl)benzene-1,2-diol]
inhibition of human TREX1 / DNA degradation in gel assay (FIGS. 1A and 1B) (Human TREX1): inhibits human TREX1 and prevents DNA degradation
IC50 [1]: 1 to 10 µM
